Results published in publication PMC7315563, “Bioactive fluorenes. Part III: 2,7-dichloro-9H-fluorene-based thiazolidinone and azetidinone analogues as anticancer and antimicrobial against multidrug resistant strains agents” (BMC Chemistry, 2020).
In brackets after ≈: the same amount, converted by molar mass.

What was measured:
[1] = test system: MDA-MB-231 human breast cancer cells; assay: cell viability assay (MTT); assay type: cell-based; conditions: 24 h; for viability at 1 µg/mL: read-out: Validity (%) for sample concentrations (µg/mL) 1; for viability at 10 µg/mL: read-out: Validity (%) for sample concentrations (µg/mL) 10; for viability at 31.25 µg/mL: read-out: Validity (%) for sample concentrations (µg/mL) 31.25; for viability at 62.5 µg/mL: read-out: Validity (%) for sample concentrations (µg/mL) 62.5; for viability at 125 µg/mL: read-out: Validity (%) for sample concentrations (µg/mL) 125; for viability at 250 µg/mL: read-out: Validity (%) for sample concentrations (µg/mL) 250; for viability at 500 µg/mL: read-out: Validity (%) for sample concentrations (µg/mL) 500
Method: (§1) WI-38 normal lung fibroblast cells, A549 lung cancer cells, and MDA-MB-231 breast cancer cells were obtained from VACSERA—Cell Culture Unit, Cairo, Egypt. The cell lines were originally obtained from the American Tissue Culture Collection (ATCC). WI-38, A549, and MDA-MB-231 cell lines were cultured in RPMI-1640 medium supplemented with 10% inactivate fetal bovine serum (FBS) and 1% penicillin/streptomycin were bought (Gibco, Invitrogen, CA). WI-38, A549, and MDA-MB-231 cells were seeded into 96-well plates (at a density of 5000 cells/well). On the following day, cells were treated with different concentrations (0, 1, 10, 31.25, 62.5, 125, 250, 500 µg/mL) of 16 fluorene derivatives in fresh medium and incubated for another 24 h. Cell viability was then assessed using the MTT assay (Sigma Aldrich, St. Louis, MO, USA), and the absorbance was read at 570 nm using an ELISA microplate reader (Molecular Devices, Downingtown, PA, USA).

[2] = test system: WI-38 human normal fibroblast cells; assay: cell viability assay (MTT); assay type: cell-based; conditions: 24 h; for viability at 31.25 µg/mL: read-out: Validity (%) for sample concentrations (µg/mL) 31.25; for viability at 62.5 µg/mL: 62.50 µg/mL, read-out: Validity (%) for sample concentrations (µg/mL) 62.50; for viability at 125 µg/mL: read-out: Validity (%) for sample concentrations (µg/mL) 125; for viability at 250 µg/mL: read-out: Validity (%) for sample concentrations (µg/mL) 250; for viability at 500 µg/mL: read-out: Validity (%) for sample concentrations (µg/mL) 500
Method: as §1

[3] = test system: A549 human lung cancer cells; assay: cell viability assay (MTT); assay type: cell-based; conditions: 24 h; for viability at 1 µg/mL: read-out: Validity (%) for sample concentrations (µg/mL) 1; for viability at 10 µg/mL: read-out: Validity (%) for sample concentrations (µg/mL) 10; for viability at 31.25 µg/mL: read-out: Validity (%) for sample concentrations (µg/mL) 31.25; for viability at 62.5 µg/mL: 62.50 µg/mL, read-out: Validity (%) for sample concentrations (µg/mL) 62.50; for viability at 125 µg/mL: read-out: Validity (%) for sample concentrations (µg/mL) 125; for viability at 250 µg/mL: read-out: Validity (%) for sample concentrations (µg/mL) 250; for viability at 500 µg/mL: read-out: Validity (%) for sample concentrations (µg/mL) 500; for viability at 1000 µg/mL: read-out: Validity (%) for sample concentrations (µg/mL) 1000
Method: as §1, with “On the following day, cells were treated with different concentrations (0, 1, 10, 31.25, 62.5, 125, 250, 500 µg/mL) of 16 fluorene derivatives in fresh medium and incubated for another 24 h.” left out

[4] = test system: Staphylococcus aureus (S. aureus), multidrug resistant clinical isolate; assay: agar well diffusion assay; assay type: cell-based; conditions: Staphylococcus aureus; S. aureus; 500 µg/mL of tested compound; 24 h
Excerpt: All microbial strains were kindly provided from the department of Medical Microbiology and Immunology faculty of Medicine Assiut University, these clinical isolates were obtained from clinical cases of infections admitted to Assiut University hospital as urinary tract infections, corneal ulcers, bacterial and fungal pneumonia, otomycosis, oral thrush and wound infections.
The clinical isolates used were multidrug resistant strains, they were resistant to β lactam (penicillin, amoxacillin, oxacillin), cephalosporins (cefazolin, cefaclor and cefepime) and macrolides (erythromycin and clarithromycin), they included Gram positive bacteria as Staphylococcus aureus (S. aureus), Methicillin-resistant Staphylococcus aureus (MRSA), Streptococcus pneumoniae (S. pneumoniae), and Gram negative bacteria as Escherichia coli (E. coli), Klebsiella pneumoniae (K. pneumoniae), Pseudomonas aeruginosa (P. aeruginosa), and Acinetobacter baumannii (A. baumannii). The fungal strains that were tested are Aspergillus flavus (A. flavus), A. niger (A. niger) and Candida albicans (C. albicans).
The antimicrobial activity of the fluorene derivatives was initially evaluated by agar well diffusion assay. Mueller–Hinton agar (CM0337) was poured into Petri dishes at 50–60 °C and left to solidify for 15 min. Subsequently, overnight microbial suspensions of tested strains was adjusted to turbidity of 0.5 McFarland Standard, which equals to 1–2 × 10^8 CFU/mL for bacteria and 1–5 × 10^6 for fungi. The microbial inoculums were then diluted in 1:100 ratio in case of bacteria and 1:10 ratio in case of fungi in order to get 1–5 × 10^5 CFU/mL. a sterile cotton swab was dipped into the adjusted microbial suspension and the Mueller–Hinton agar plates were inoculated by evenly streaking cotton swab over the agar medium. Then wells with a diameter of 0.5 cm were cut in the medium with a sterile cork borer. Stock solutions of the flourene derivatives were diluted in DMSO 1% to get 500 μg/mL concentrations. The tested flourene derivatives and controls (50 μL) were dispensed into the wells. The plates were incubated for 24 h at 37 °C for bacteria and C. albicans while at 25 °C for A. falvus and A. niger. The diameters of zones of inhibition (ZOI) around the wells were measured in mm. Following control agents were used: positive control agents—vancomycin (50 μg/mL) for Gram positive bacteria, gentamicin (10 μg/mL) (for Gram negative bacteria) and fluconazole 25 μg/mL for fungi and negative control agent is 1% DMSO.

| IC50 [1] [µg/mL] | SMILES | viability at 1 µg/mL [1] [%] | viability at 10 µg/mL [1] [%] | viability at 31.25 µg/mL [1] [%] | viability at 62.5 µg/mL [1] [%] | viability at 125 µg/mL [1] [%] | viability at 250 µg/mL [1] [%] | viability at 500 µg/mL [1] [%] | viability at 31.25 µg/mL [2] [%] | viability at 62.5 µg/mL [2] [%] | viability at 125 µg/mL [2] [%] | viability at 250 µg/mL [2] [%] | viability at 500 µg/mL [2] [%] | IC50 [2] [µg/mL] | viability at 1 µg/mL [3] [%] | viability at 10 µg/mL [3] [%] | viability at 31.25 µg/mL [3] [%] | viability at 62.5 µg/mL [3] [%] | viability at 125 µg/mL [3] [%] | viability at 250 µg/mL [3] [%] | other results |
| --- | --- | --- | --- | --- | --- | --- | --- | --- | --- | --- | --- | --- | --- | --- | --- | --- | --- | --- | --- | --- | --- |
| > 500 | O=C1CSC(c2ccc([N+](=O)[O-])cc2)N1c1nc(-c2cc(Cl)cc3c2-c2ccc(Cl)cc2C3)cs1 (stereo not shown) [5f, 3-(4-(2,7-Dichloro-9H-fluoren-4-yl)thiazol-2-yl)-2-(4-nitrophenyl)thiazolidin-4-one] | 98.1 | 97.2 | 89 | 84.7 | 81 | 79.6 | 77.5 | 82.5 | 81.9 | 77 | 74.3 | 67.8 | > 500 | 95 | 89.8 | 87 | 83.8 | 79.2 | 75.4 | viability at 500 µg/mL [3]: 65.5%; viability at 1000 µg/mL [3]: 12.6%; IC50 [3]: 567 µg/mL (≈ 1050 µM); melting point: 90 to 92 °C |
| > 500 | CN(C)c1ccc(C2SCC(=O)N2c2nc(-c3cc(Cl)cc4c3-c3ccc(Cl)cc3C4)cs2)cc1 (stereo not shown) [5e, 3-(4-(2,7-Dichloro-9H-fluoren-4-yl)thiazol-2-yl)-2-(4-(dimethylamino)phenyl)thiazolidin-4-one] | 97.3 | 96.3 | 93.6 | 92.6 | 85.5 | 75.9 | 73.7 | 92.4 | 85.7 | 74.4 | 69.3 | 62.9 | > 500 | 93.4 | 90.2 | 85.6 | 77.3 | 72.2 | 65.7 | viability at 500 µg/mL [3]: 62.2%; viability at 1000 µg/mL [3]: 48.9%; IC50 [3]: 847 µg/mL (≈ 1570 µM); melting point: 94 to 96 °C |
| 334 (≈ 640 µM) | O=C1CSC(C=Cc2ccccc2)N1c1nc(-c2cc(Cl)cc3c2-c2ccc(Cl)cc2C3)cs1 (stereo not shown) [5i, 3-(4-(2,7-Dichloro-9H-fluoren-4-yl)thiazol-2-yl)-2-styrylthiazolidin-4-one] | 96 | 83.8 | 61 | 56.2 | 52.2 | 50.5 | 46.1 | 88.2 | 86.9 | 69.1 | 63.1 | 59.3 | > 500 | 93.3 | 92.2 | 91.4 | 85.6 | 81.3 | 76.9 | viability at 500 µg/mL [3]: 63.2%; viability at 1000 µg/mL [3]: 49.3%; IC50 [3]: 896 µg/mL (≈ 1720 µM); melting point: 114 to 116 °C; zone of inhibition at 500 µg/mL [4]: 10 mm |
